# Reference: patent publication US11766470B2, “Manufacture, formulation and dosing of apraglutide” (VectivBio AG, priority 2020, dated 2023)
# Square brackets hold non-standard residues; d marks the D form. Peptide text beside a SMILES is read from it. ξ: configuration not given here. Ile(3ξ) = CCC(C)[C@H](N)C(=O)O; Thr(3ξ) = CC(O)[C@H](N)C(=O)O; Nle = CCCC[C@H](N)C(=O)O
# Tested on: healthy adult volunteers
# Assay: Multiple dose study in healthy volunteers (Examples 4 and 7), pharmacodynamics: plasma citrulline, Bristol stool scale, body weight
# Type: in vivo, human
# Conditions: for Highest mean citrulline value following the first weekly SC dose: after four days
# Description: The endogenous marker citrulline was selected to assess the pharmacodynamic effect of apraglutide. Citrulline was detected in all baseline and post-dose samples. Three baseline citrulline samples were obtained during two baseline visits between screening and the first dosing day and before dosing on the first dosing day. […] At baseline, the mean citrulline range was 5.3825-5.6207 μg/mL for placebo, 5.3900-6.2028 μg/mL for 1 mg apraglutide, 4.8983-5.3023 μg/mL for 5 mg apraglutide and 5.0730-5.4690 μg/mL for 10 mg apraglutide. In the placebo group, the mean citrulline concentration remained relatively stable over the trial, ranging from 4.9735 to 5.8253 μg/mL.
# In short, the first contrast tested compared the mean Rpre-dose at the first time point (week 1) to the pooled mean Rpre-dose over all remaining time points (week 2 to 6). The second contrast compared the mean at week 2 to the pooled mean over week 3 to 6, etc. Testing continued until the contrast was not statistically significant. The mean Rpre-dose at week 6 for 10 mg against mean Rpre-dose over week 5 (0.8720, 95% CI: 0.1590; 1.5850 and p=0.0172) was statistically significant.
# Besides citrulline, the Bristol stool scale and body weight were assessed as pharmacodynamic endpoints. In contrast to citrulline and weight, the Bristol stool scale is a discrete variable. Subjects assessed their stool in the past 24 hours using the Bristol stool scale ranging from constipation (type 1) to diarrhea (type 7). No stool in the past 24 hours was recorded as zero. As two subjects (assigned to either 1 or 5 mg) reported no stool preceding the first dose, the screening Bristol stool scale score was also taken into account when determining the baseline Bristol stool scale score.
# Citrulline, BSS and weight data are analyzed with a mixed model analysis of variance with fixed factors treatment, time and treatment by time, random factor subject, and the average prevalue as covariate. The average pre-value was calculated from all pre-values after screening and before dosing, except for BSS, where the screening value was also used to calculate the average baseline.
# For all pharmacodynamic endpoints (citrulline, Bristol stool scale and weight), the pre-value has been used as covariate. The average pre-value was calculated from all pre-values after screening and before dosing, except for the Bristol stool scale, where the screening value was also used to calculate the average baseline. The average pre-value of citrulline was also used as covariate in the MCP-MOD, except in the Sigmoid Emax model. This was addressed by subtracting the pre-value times the slope of the linear model of the MCP part from the values of week 6.
# [1] = 1 mg, over the whole trial period
compound,measurement,setting,value
"CCCC[C@H](NC(=O)[C@H](CCC(=O)O)NC(=O)[C@H](CC(=O)O)NC(=O)[C@H](CO)NC(=O)[C@H](Cc1ccccc1)NC(=O)[C@H](CO)NC(=O)CNC(=O)[C@H](CC(=O)O)NC(=O)CNC(=O)[C@@H](N)Cc1c[nH]cn1)C(=O)N[C@H](Cc1ccccc1)C(=O)N[C@H](C(=O)N[C@H](C(=O)N[C@@H](CC(C)C)C(=O)N[C@@H](CC(=O)O)C(=O)N[C@@H](CC(C)C)C(=O)N[C@@H](CC(C)C)C(=O)N[C@@H](C)C(=O)N[C@@H](C)C(=O)N[C@@H](CCCNC(=N)N)C(=O)N[C@@H](CC(=O)O)C(=O)N[C@@H](Cc1ccccc1)C(=O)N[C@H](C(=O)N[C@@H](CC(N)=O)C(=O)N[C@@H](Cc1c[nH]c2ccccc12)C(=O)N[C@@H](CC(C)C)C(=O)N[C@H](C(=O)N[C@@H](CCC(N)=O)C(=O)N[C@H](C(=O)N[C@@H](CCCCN)C(=O)N[C@H](C(=O)N[C@H](C(=O)N[C@@H](CC(=O)O)C(N)=O)C(C)O)C(C)CC)C(C)O)C(C)CC)C(C)CC)C(C)CC)C(C)O (stereo partly drawn) [apraglutide, L-histidyl-glycyl-L-aspartyl-glycyl-L-seryl-L-phenylalanyl-L-seryl-L-aspartyl-L-glutamyl-L-norleucyl-D-phenylalanyl-L-threonyl-Lisoleucyl-L-leucyl-L-aspartyl-L-leucyl-L-leucyl-L-alanyl-L-alanyl-L-arginyl-L-aspartyl-L-phenylalanyl-L-isoleucyl-L-asparaginyl-Ltryptophanyl-L-leucyl-L-isoleucyl-L-glutaminyl-L-threonyl-L-lysyl-L-isoleucyl-L-threonyl-Laspartic acid amide] (H-HGDGSFSDE[Nle][dF][Thr(3ξ)][Ile(3ξ)]LDLLAARDF[Ile(3ξ)]NWL[Ile(3ξ)]Q[Thr(3ξ)]K[Ile(3ξ)][Thr(3ξ)]D-NH2)",Difference between mean Rmax over the whole trial and Rmax after last dose,1 mg,0.1016 µg/mL
same,"Bristol stool scale with zeroes set to missing, estimate of the difference",1 mg - 5 mg,0.2
same,"Bristol stool scale, estimate of the difference",1 mg - 5 mg,−0.1
same,"Citrulline, estimate of the difference",1 mg - 5 mg,0.9429 µg/mL
same,"Weight, estimate of the difference",1 mg - 5 mg,-0.115 kg
same,"Bristol stool scale with zeroes set to missing, estimate of the difference",1 mg - 10 mg,0.1
same,"Bristol stool scale, estimate of the difference",1 mg - 10 mg,0.3
same,"Citrulline, estimate of the difference",1 mg - 10 mg,1.3198 µg/mL
same,"Weight, estimate of the difference",1 mg - 10 mg,0.419 kg
same,"No stool in the past 24 hours, number of reports",1 mg group (2 subjects),6 times
same,Highest mean citrulline value following the first weekly SC dose,1 mg,6.3920 µg/mL
same,"Citrulline Rtmax, median","1 mg, after last dose 6",2.0 days
same,"Citrulline Rpre-dose, arithmetic mean ± SD","1 mg, last dose 1",5.8075 ± 1.3328 µg/mL
same,"Citrulline Rpre-dose, geometric mean","1 mg, last dose 1",5.6723 µg/mL
same,"Citrulline Rpre-dose, arithmetic mean ± SD","1 mg, last dose 2",6.2605 ± 1.2331 µg/mL
same,"Citrulline Rpre-dose, geometric mean","1 mg, last dose 2",6.1526 µg/mL
same,"Citrulline Rpre-dose, arithmetic mean ± SD","1 mg, last dose 3",6.4913 ± 1.8297 µg/mL
same,"Citrulline Rpre-dose, geometric mean","1 mg, last dose 3",6.2752 µg/mL
same,"Citrulline Rpre-dose, arithmetic mean ± SD","1 mg, last dose 4",6.0050 ± 1.5790 µg/mL
same,"Citrulline Rpre-dose, geometric mean","1 mg, last dose 4",5.8213 µg/mL
same,"Citrulline Rpre-dose, arithmetic mean ± SD","1 mg, last dose 5",6.4128 ± 1.8032 µg/mL
same,"Citrulline Rpre-dose, geometric mean","1 mg, last dose 5",6.2097 µg/mL
same,"Citrulline Rmax, arithmetic mean ± SD","1 mg, last dose 6",7.1702 µg/mL
same,"Citrulline Rmax, geometric mean","1 mg, last dose 6",7.0069 µg/mL
same,"Citrulline Rpre-dose, arithmetic mean ± SD","1 mg, last dose 6",6.3120 ± 1.6694 µg/mL
same,"Citrulline Rpre-dose, geometric mean","1 mg, last dose 6",6.1166 µg/mL
same,"Citrulline Rmax, arithmetic mean ± SD","1 mg, last dose 6, listed as Apraglutide",7.1702 ± 1.6611 µg/mL
same,"Citrulline Rmax, arithmetic mean ± SD",[1],7.2718 ± 1.6959 µg/mL
same,"Citrulline Rmax, geometric mean",[1],7.1036 µg/mL
same,"Citrulline Rtmax, median","1 mg, whole trial period, from first dose",35.9 days
same,Difference between mean Rmax over the whole trial and Rmax after last dose,5 mg,0.0973 µg/mL
same,"Bristol stool scale with zeroes set to missing, estimate of the difference",5 mg - 10 mg,−0.0
same,"Bristol stool scale, estimate of the difference",5 mg - 10 mg,0.5
same,"Citrulline, estimate of the difference",5 mg - 10 mg,0.3769 µg/mL
same,"Weight, estimate of the difference",5 mg - 10 mg,0.534 kg
same,"No stool in the past 24 hours, number of reports",5 mg group (4 subjects),13 times
same,Highest mean citrulline value following the first weekly SC dose,5 mg,7.1933 µg/mL
same,"Citrulline Rtmax, median","5 mg, after last dose 6",3.9 days
same,"Citrulline Rpre-dose, arithmetic mean ± SD","5 mg, last dose 1",6.7695 ± 1.5288 µg/mL
same,"Citrulline Rpre-dose, geometric mean","5 mg, last dose 1",6.5967 µg/mL
same,"Citrulline Rpre-dose, arithmetic mean ± SD","5 mg, last dose 2",7.0082 ± 1.1330 µg/mL
same,"Citrulline Rpre-dose, geometric mean","5 mg, last dose 2",6.9208 µg/mL
same,"Citrulline Rpre-dose, arithmetic mean ± SD","5 mg, last dose 3",6.6155 ± 1.2790 µg/mL
same,"Citrulline Rpre-dose, geometric mean","5 mg, last dose 3",6.5109 µg/mL
same,"Citrulline Rpre-dose, arithmetic mean ± SD","5 mg, last dose 4",6.6227 ± 1.2247 µg/mL
same,"Citrulline Rpre-dose, geometric mean","5 mg, last dose 4",6.5313 µg/mL
same,"Citrulline Rpre-dose, arithmetic mean ± SD","5 mg, last dose 5",6.8307 ± 1.2369 µg/mL
same,"Citrulline Rpre-dose, geometric mean","5 mg, last dose 5",6.7248 µg/mL
same,"Citrulline Rmax, arithmetic mean ± SD","5 mg, last dose 6",8.1577 µg/mL
same,"Citrulline Rmax, geometric mean","5 mg, last dose 6",8.0024 µg/mL
same,"Citrulline Rpre-dose, arithmetic mean ± SD","5 mg, last dose 6",7.2498 ± 1.2461 µg/mL
same,"Citrulline Rpre-dose, geometric mean","5 mg, last dose 6",7.1475 µg/mL
